Where a name gives a salt, the structure may show the parent alone.

One test deals with T1, Recombinant human HDAC6 (Homo sapiens, UniProt Q9UBN7).
T1 construct: purchased BPS Biosciences
T1 sequence (Q9UBN7 1-1215): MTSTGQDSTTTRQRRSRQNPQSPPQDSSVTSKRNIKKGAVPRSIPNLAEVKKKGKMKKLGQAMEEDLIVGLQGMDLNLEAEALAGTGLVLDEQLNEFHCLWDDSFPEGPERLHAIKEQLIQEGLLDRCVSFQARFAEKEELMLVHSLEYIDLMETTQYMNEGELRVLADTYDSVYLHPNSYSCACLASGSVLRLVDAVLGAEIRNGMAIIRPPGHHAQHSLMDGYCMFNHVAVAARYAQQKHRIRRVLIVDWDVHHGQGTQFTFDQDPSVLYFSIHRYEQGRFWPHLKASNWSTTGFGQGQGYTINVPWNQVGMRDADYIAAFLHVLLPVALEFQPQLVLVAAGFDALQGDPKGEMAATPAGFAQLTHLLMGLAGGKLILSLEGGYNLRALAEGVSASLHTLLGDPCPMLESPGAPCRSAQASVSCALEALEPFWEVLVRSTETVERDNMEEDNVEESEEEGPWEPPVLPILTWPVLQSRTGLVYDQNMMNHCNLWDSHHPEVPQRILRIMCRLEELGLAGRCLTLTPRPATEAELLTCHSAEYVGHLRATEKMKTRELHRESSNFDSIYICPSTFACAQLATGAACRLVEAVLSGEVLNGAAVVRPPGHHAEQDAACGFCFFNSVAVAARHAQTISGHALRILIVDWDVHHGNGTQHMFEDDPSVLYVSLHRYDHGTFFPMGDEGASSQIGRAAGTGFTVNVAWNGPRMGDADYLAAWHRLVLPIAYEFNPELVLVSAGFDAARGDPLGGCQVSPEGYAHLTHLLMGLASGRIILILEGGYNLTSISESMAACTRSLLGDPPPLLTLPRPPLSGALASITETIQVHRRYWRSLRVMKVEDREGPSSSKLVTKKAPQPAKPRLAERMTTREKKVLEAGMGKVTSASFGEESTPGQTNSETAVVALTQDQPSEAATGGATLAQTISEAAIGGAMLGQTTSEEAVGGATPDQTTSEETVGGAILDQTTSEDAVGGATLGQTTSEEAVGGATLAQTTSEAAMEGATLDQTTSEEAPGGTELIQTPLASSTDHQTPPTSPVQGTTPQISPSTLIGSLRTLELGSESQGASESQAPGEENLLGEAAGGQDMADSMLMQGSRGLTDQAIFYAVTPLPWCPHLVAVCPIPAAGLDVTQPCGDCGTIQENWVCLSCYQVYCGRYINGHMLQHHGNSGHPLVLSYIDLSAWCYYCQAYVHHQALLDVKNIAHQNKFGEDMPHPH
The experiment in a line: HDAC inhibitory assay, HDAC6 (Boc-Lys(Ac)-AMC substrate). It is filed as biochemical. The following applies: test concentration not given; average of triplicate. As for the experimental part:
(§1) The compounds of Examples 1-12 and 14-16 were evaluated for their ability to act as inhibitors of human HDAC. The compound of Example 13 was not tested. Recombinant human HDAC1, HDAC2, HDAC3/NcoR2, HDAC5, HDAC6, HDAC8, HDAC9, HDAC10 and HDAC11 were purchased from BPS Biosciences. Recombinant human HDAC4 and HDAC7 were purchased from Millipore. The substrate Boc-Lys(Ac)-AMC and Boc-Lys(Tfa)-AMC were purchased from Bachem. The substrate Ac-RHK(Ac)K(Ac)-AMC was purchased from Enzo Life Sciences. Due to the different specific activities of each isoform, different amount of enzyme was used in each isoform screening assay. In these assays, trichostatin A (TSA), suberanilohydroxamic acid and diphenylacetohydroxamic acid (DPAHA) were employed as positive controls. All determinations were carried out in triplicate, and reported values were the average of these determinations, which in no case varied by more than 5%.
Then 25 μl of the Boc-Lys(Ac)-AMC substrate (50 μM final concentration) was added and incubated at 37° C. for 30-60 min, and followed by adding 50 μl of developer (1 mg/ml trypsin and 1 μM TSA). The last step was reading the samples in a SpectraMax M5 plate reader (Molecular Devices) at an excitation wavelength of 360 nm and an emission wavelength of 460 nm.

A further test concerns the target T2, Recombinant human HDAC11 (Homo sapiens, UniProt Q96DB2).
T2 construct: purchased BPS Biosciences
T2 sequence (Q96DB2 1-347): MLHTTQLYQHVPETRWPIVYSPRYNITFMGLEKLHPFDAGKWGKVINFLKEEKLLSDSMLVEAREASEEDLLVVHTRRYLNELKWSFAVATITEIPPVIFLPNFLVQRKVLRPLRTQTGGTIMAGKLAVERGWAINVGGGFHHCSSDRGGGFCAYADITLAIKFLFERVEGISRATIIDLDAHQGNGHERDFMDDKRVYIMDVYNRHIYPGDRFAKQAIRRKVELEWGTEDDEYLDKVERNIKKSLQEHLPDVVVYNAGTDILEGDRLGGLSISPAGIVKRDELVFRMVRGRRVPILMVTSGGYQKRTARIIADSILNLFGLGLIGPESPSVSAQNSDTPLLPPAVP
The test is described as follows: HDAC inhibitory assay, HDAC11 (Boc-Lys(Tfa)-AMC substrate). The following applies: test concentration not given; average of triplicate. The class given is biochemical. As for the experimental part: as §1
For evaluating the inhibition of class IIa HDACs (HDAC4, HDAC5, HDAC7 and HDAC9) and class IV HDAC (HDAC11), 10 μl of test samples were first incubated with 1 ng HDAC4 (specific activity=15400 pmol/min/μg), 5 ng HDAC5 (specific activity=2521 pmol/min/μg), 1 ng HDAC7 (specific activity=26340 pmol/min/μg), 5 ng HDAC9 (specific activity=3000 pmol/min/μg), and 500 ng HDAC11 (specific activity=1.8 pmol/min/μg) respectively. Then 25 μl of the Boc-Lys(Tfa)-AMC substrate (50 μM final concentration) was added and incubated at 37° C. for 30-60 min, and followed by adding 50 μl of developer. The last step was to read the samples in a SpectraMax M5 plate reader (Molecular Devices) at an excitation wavelength of 360 nm and an emission wavelength of 460 nm.

Take `O=C(Nc1ccccc1)c1coc(-c2ccccc2O)n1` [Example 1, 2-(2-Hydroxyphenyl)-N-phenyloxazole-4-carboxamide]: the “HDAC 6 inhibitory activity” value at Recombinant human HDAC6 amounted to 50.3%. The “HDAC 11 inhibitory activity” value on Recombinant human HDAC11 came to 21.8%.
The matching figures for `O=C(NC(c1ccccc1)c1ccccc1)c1coc(-c2ccccc2O)n1` [Example 2, N-Benzhydryl-2-(2-hydroxyphenyl)oxazole-4-carboxamide]: 61.6% and 23.1%.
Turning to `O=C(NCC(c1ccccc1)c1ccccc1)c1coc(-c2ccccc2O)n1` [Example 3, N-(2,2-Diphenylethyl)-2-(2-hydroxyphenyl)oxazole-4-carboxamide], the “HDAC 6 inhibitory activity” value on Recombinant human HDAC6 is given as 49.1%. In addition, the “HDAC 11 inhibitory activity” value at Recombinant human HDAC11 amounted to 39.5%.
The matching figures for `O=C(NCCC(c1ccccc1)c1ccccc1)c1coc(-c2ccccc2O)n1` [Example 4, N-(3,3-Diphenylpropyl)-2-(2-hydroxyphenyl)oxazole-4-carboxamide]: 48.1% and 45.2%.
The matching figures for `O=C(Nc1ccc(-c2ccccc2)cc1)c1coc(-c2ccccc2O)n1` [Example 5, N-([1,1′-Biphenyl]-4-yl)-2-(2-hydroxyphenyl)oxazole-4-carboxamide]: 45.6% and 28.4%.
Turning to `O=C(NCc1ccc(-c2ccccc2)cc1)c1coc(-c2ccccc2O)n1` [Example 6, N-([1,1′-Biphenyl]-4-ylmethyl)-2-(2-hydroxyphenyl)oxazole-4-carboxamide], the “HDAC 6 inhibitory activity” value at Recombinant human HDAC6 is given as 47.8%. The “HDAC 11 inhibitory activity” value at Recombinant human HDAC11 is 47.8%.
As to `O=C(NCc1cccc2ccccc12)c1coc(-c2ccccc2O)n1` [Example 7, 2-(2-Hydroxyphenyl)-N-(naphthalen-1-ylmethyl)oxazole-4-carboxamide], the “HDAC 6 inhibitory activity” value on Recombinant human HDAC6 amounted to 40.4%. For the same molecule, the “HDAC 11 inhibitory activity” value at Recombinant human HDAC11 was 49.9%.
The matching figures for `O=C(NCCc1c[nH]c2ccccc12)c1coc(-c2ccccc2O)n1` [Example 8, N-(2-(1H-Indol-3-yl)ethyl)-2-(2-hydroxyphenyl)oxazole-4-carboxamide]: 30.8% and 26.0%.
As for `O=C(NCCCCN1C(=O)c2ccccc2C1=O)c1coc(-c2ccccc2O)n1` [Example 9, N-(4-(1,3-Dioxoisoindolin-2-yl)butyl)-2-(2-hydroxyphenyl)oxazole-4-carboxamide], the “HDAC 6 inhibitory activity” value on Recombinant human HDAC6 is 46.0%. On Recombinant human HDAC11, the “HDAC 11 inhibitory activity” value was 33.8%.
On to `O=C(NCCCCNC(=O)C(c1ccccc1)c1ccccc1)c1coc(-c2ccccc2O)n1` [Example 10, N-(4-(2,2-Diphenylacetamido)butyl)-2-(2-hydroxyphenyl)oxazole-4-carboxamide], for which, on Recombinant human HDAC6, the “HDAC 6 inhibitory activity” value came to 26.7%. The “HDAC 11 inhibitory activity” value on Recombinant human HDAC11 was 30.1%.
The matching figures for `O=C(NCCCCNC(=S)NCCC(c1ccccc1)c1ccccc1)c1coc(-c2ccccc2O)n1` [Example 11, N-(4-(3-(3,3-Diphenylpropyl)thioureido)butyl)-2-(2-hydroxyphenyl)oxazole-4-carboxamide]: 50.2% and 69.9%.
The matching figures for `O=C(NCCCCNCCC(c1ccccc1)c1ccccc1)c1coc(-c2ccccc2O)n1` [Example 12, N-(4-((3,3-Diphenylpropyl)amino)butyl)-2-(2-hydroxyphenyl)oxazole-4-carboxamide hydrochloride]: 28.9% and 39.1%.
The matching figures for `O=C(O)c1ccc(CNC(=O)c2coc(-c3ccccc3O)n2)cc1` [Example 14, 4-((2-(2-Hydroxyphenyl)oxazole-4-carboxamido)methyl)benzoic acid]: 60.3% and 49.2%.
Take `O=C(Nc1ccccc1)c1ccc(CNC(=O)c2coc(-c3ccccc3O)n2)cc1` [Example 15, 2-(2-Hydroxyphenyl)-N-(4-(phenylcarbamoyl)benzyl)oxazole-4-carboxamide]: the “HDAC 6 inhibitory activity” value on Recombinant human HDAC6 was 30.8%. The “HDAC 11 inhibitory activity” value on Recombinant human HDAC11 stood at 20.1%.
The matching figures for `O=C(CNC(=O)c1coc(-c2ccccc2O)n1)Nc1ccccc1` [Example 16, 2-(2-Hydroxyphenyl)-N-(2-oxo-2-(phenylamino)ethyl)oxazole-4-carboxamide]: 59.9% and 46.6%.
